Assay results: the kinase profiling compilation of Christmann-Franck et al. (2016)

Columns and labels:
Assay in all cases: KINOMEscan competition binding
Settings in all cases: compound 10.0 µM
[1] = system: FGFR3 (human), P22607 [G697C]
CDKL5 (human) = CDKL5 (human) (UniProt O76039)
MAPK1 (human) = MAPK1 (human) (UniProt P28482)
PRKCH (human) = PRKCH (human) (UniProt P24723)
MERTK (human) = MERTK (human) (UniProt Q12866)
CSNK1D (human) = CSNK1D (human) (UniProt P48730)
MYLK (human) = MYLK (human) (UniProt Q15746)
NEK6 (human) = NEK6 (human) (UniProt Q9HC98)
CDKL3 (human) = CDKL3 (human) (UniProt Q8IVW4)
MARK3 (human) = MARK3 (human) (UniProt P27448)
RPS6KA4 KD1 (human) = RPS6KA4 KD1 (human) (UniProt O75676)
WEE1 (human) = WEE1 (human) (UniProt P30291)
NIM1 (human) = NIM1 (human) (UniProt Q8IY84)
TEK (human) = TEK (human) (UniProt Q02763)
ACVR2B (human) = ACVR2B (human) (UniProt Q13705)
Chain of ACVR2B (human) (Q13705 whole entry, looked up): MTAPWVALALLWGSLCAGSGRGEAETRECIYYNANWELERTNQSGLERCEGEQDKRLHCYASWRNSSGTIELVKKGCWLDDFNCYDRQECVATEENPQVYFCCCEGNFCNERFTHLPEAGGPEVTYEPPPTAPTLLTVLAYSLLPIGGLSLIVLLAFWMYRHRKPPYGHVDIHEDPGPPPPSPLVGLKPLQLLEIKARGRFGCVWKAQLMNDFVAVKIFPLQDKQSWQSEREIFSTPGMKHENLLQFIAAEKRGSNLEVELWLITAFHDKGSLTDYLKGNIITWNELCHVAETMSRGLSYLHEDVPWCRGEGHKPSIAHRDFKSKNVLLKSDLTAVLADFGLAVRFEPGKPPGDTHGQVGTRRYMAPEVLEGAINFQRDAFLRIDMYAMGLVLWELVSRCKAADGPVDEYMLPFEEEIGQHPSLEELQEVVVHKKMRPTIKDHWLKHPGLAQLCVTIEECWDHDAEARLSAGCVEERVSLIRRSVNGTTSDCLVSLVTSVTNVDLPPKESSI

[2] = target: JAK3 JH1 catalytic (human) (UniProt P52333)
ITK (human) = ITK (human) (UniProt Q08881)
[3] = system: PIK3CA (human), P42336 [M1043I]
Chain of PIK3CA (human), P42336 [M1043I] (P42336 whole entry M1043I, looked up): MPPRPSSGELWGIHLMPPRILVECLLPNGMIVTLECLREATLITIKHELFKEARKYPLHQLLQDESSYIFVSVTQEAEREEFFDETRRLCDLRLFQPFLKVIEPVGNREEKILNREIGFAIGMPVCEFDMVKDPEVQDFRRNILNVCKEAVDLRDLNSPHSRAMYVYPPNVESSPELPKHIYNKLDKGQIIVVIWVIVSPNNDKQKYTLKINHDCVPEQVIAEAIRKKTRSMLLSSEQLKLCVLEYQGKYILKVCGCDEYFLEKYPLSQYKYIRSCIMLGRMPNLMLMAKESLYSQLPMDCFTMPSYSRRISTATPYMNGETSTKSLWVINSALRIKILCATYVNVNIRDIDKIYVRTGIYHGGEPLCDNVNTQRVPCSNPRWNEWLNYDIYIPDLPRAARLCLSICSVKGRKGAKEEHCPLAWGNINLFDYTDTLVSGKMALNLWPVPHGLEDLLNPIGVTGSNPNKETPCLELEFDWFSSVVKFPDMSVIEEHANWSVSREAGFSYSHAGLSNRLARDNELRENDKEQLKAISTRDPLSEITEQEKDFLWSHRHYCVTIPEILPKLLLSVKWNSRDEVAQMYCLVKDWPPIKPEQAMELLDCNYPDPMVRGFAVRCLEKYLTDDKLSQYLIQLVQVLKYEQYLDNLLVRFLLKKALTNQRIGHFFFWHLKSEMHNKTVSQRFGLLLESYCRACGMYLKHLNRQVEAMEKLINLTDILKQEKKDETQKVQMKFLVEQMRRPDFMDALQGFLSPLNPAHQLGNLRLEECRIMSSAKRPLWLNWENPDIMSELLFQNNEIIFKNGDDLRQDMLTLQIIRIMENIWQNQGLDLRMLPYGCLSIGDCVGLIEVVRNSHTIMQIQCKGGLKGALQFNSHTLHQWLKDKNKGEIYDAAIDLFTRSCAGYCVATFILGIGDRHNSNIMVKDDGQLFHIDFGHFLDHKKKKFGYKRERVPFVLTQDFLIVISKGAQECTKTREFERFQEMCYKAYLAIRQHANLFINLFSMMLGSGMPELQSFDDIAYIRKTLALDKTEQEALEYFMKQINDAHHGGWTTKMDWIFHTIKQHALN

PDGFRB (human) = PDGFRB (human) (UniProt P09619)
MAPK6 (human) = MAPK6 (human) (UniProt Q16659)
Chain of MAPK6 (human) (Q16659 whole entry, looked up): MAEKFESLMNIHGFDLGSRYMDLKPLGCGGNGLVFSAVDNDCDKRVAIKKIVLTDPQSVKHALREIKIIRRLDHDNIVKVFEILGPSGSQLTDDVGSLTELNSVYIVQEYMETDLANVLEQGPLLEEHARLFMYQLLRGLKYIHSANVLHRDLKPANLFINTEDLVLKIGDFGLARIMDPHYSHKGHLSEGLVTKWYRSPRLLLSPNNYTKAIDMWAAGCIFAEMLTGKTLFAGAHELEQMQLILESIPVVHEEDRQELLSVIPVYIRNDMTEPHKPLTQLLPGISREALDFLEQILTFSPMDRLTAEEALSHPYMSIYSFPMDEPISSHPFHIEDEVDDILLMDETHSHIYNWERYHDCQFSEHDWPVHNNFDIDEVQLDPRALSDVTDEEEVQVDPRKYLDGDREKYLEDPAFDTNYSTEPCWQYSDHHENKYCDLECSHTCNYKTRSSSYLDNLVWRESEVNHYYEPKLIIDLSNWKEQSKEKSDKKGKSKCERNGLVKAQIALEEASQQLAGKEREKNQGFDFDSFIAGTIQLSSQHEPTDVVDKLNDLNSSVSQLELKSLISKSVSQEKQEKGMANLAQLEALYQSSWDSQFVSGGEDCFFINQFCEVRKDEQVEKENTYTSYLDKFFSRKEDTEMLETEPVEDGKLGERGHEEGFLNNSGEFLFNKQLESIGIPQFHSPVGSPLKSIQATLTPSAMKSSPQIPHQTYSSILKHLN

CAMK2A (human) = CAMK2A (human) (UniProt Q9UQM7)
SYK (human) = SYK (human) (UniProt P43405)
NLK (human) = NLK (human) (UniProt Q9UBE8)
FGFR2 (human) = FGFR2 (human) (UniProt P21802)
ERBB3 (human) = ERBB3 (human) (UniProt P21860)
SBK1 (human) = SBK1 (human) (UniProt Q52WX2)
ACVR1 (human) = ACVR1 (human) (UniProt Q04771)
CHUK (human) = CHUK (human) (UniProt O15111)
Chain of CHUK (human) (O15111 whole entry, looked up): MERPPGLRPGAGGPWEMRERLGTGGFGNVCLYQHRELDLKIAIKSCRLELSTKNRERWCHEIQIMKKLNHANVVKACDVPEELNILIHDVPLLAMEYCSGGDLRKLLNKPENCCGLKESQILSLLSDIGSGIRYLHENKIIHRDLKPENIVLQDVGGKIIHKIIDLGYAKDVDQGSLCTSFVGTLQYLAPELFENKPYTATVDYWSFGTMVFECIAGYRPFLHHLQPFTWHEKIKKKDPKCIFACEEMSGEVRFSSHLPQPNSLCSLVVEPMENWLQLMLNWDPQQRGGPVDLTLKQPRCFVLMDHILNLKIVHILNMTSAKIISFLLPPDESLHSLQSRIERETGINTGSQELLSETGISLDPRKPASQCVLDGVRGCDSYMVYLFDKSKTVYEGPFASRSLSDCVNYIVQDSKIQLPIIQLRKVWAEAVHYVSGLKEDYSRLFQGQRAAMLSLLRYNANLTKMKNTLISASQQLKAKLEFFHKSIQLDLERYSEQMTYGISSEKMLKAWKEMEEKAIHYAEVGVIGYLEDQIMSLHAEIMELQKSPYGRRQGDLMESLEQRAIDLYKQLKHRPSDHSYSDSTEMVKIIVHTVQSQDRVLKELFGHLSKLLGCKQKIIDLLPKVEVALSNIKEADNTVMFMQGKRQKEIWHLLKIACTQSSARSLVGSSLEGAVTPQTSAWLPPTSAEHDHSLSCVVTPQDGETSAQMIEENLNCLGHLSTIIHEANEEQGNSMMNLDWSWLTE

MAPK12 (human) = MAPK12 (human) (UniProt P53778)
Chain of MAPK12 (human) (P53778 whole entry, looked up): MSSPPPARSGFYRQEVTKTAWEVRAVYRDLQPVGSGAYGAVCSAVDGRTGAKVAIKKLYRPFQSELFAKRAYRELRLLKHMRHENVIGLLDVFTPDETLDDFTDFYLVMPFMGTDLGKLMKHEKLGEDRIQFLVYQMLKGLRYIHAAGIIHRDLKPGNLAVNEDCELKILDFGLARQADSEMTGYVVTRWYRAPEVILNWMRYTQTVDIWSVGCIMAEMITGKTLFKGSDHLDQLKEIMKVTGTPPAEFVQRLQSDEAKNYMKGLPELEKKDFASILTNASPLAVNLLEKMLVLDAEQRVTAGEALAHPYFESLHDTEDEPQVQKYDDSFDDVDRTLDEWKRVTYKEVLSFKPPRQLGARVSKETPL

PHKG2 (human) = PHKG2 (human) (UniProt P15735)
MAP3K15 (human) = MAP3K15 (human) (UniProt Q6ZN16)
PRKG1 (human) = PRKG1 (human) (UniProt Q13976)
MAP2K2 (human) = MAP2K2 (human) (UniProt P36507)
Chain of MAP2K2 (human) (P36507 whole entry, looked up): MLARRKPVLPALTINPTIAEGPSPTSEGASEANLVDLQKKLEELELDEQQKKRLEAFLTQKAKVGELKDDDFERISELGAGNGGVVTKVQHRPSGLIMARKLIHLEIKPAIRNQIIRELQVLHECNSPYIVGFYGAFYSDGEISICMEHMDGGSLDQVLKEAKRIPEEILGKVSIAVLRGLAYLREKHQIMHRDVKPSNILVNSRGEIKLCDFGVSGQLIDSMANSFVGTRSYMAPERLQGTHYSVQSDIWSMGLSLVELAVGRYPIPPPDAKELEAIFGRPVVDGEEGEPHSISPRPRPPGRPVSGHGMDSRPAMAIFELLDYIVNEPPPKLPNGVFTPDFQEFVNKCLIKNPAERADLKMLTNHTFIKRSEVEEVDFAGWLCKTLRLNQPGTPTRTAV

MAP3K3 (human) = MAP3K3 (human) (UniProt Q99759)
Chain of MAP3K3 (human) (Q99759 whole entry, looked up): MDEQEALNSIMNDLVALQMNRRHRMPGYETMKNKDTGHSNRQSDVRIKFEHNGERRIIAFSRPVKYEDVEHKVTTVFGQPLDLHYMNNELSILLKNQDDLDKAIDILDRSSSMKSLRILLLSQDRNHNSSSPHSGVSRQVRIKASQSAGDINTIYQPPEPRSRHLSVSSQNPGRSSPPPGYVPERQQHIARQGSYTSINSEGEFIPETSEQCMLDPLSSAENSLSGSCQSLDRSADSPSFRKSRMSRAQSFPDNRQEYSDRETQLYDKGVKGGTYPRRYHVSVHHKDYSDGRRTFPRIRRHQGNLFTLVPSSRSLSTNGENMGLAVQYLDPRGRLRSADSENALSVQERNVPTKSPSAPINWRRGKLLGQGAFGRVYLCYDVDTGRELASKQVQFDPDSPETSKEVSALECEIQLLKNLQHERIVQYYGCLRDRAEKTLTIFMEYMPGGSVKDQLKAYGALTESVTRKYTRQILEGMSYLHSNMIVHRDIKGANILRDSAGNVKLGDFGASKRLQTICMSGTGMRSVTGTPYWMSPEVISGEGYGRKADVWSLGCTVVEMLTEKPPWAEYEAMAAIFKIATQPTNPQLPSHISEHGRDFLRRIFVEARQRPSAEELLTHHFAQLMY

PDPK1 (human) = PDPK1 (human) (UniProt O15530)
ROCK2 (human) = ROCK2 (human) (UniProt O75116)
STK35 (human) = STK35 (human) (UniProt Q8TDR2)
Chain of STK35 (human) (Q8TDR2 whole entry, looked up): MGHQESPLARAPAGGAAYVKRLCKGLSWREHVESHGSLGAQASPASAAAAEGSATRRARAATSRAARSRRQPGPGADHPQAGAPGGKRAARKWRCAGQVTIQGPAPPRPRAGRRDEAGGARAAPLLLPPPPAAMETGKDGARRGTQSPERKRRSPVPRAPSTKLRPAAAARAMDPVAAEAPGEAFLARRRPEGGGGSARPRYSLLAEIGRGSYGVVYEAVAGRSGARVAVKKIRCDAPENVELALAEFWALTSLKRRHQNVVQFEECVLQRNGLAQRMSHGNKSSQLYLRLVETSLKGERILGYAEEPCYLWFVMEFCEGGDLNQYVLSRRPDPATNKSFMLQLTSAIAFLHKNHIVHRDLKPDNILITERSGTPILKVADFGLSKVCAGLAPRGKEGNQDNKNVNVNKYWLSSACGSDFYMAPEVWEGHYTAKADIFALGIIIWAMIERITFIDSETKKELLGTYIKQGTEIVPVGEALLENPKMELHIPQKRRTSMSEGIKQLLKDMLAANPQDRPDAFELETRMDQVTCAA

CASK (human) = CASK (human) (UniProt O14936)
CPK1 (P.falciparum) = system: CPK1 (P.falciparum)
[4] = system: KIT (human), P10721 [D816H]

## CCOc1cc(N2CCC(O)CC2)ccc1Nc1ncc2c(n1)N(C)c1ccccc1C(=O)N2C
[1]
  kinase still bound, per cent of control: 100%
CDKL5 (human)
  kinase still bound, per cent of control: 100%
MAPK1 (human)
  kinase still bound, per cent of control: 100%
PRKCH (human)
  kinase still bound, per cent of control: 100%
MERTK (human)
  kinase still bound, per cent of control: 100%
CSNK1D (human)
  kinase still bound, per cent of control: 100%
MYLK (human)
  kinase still bound, per cent of control: 100%
NEK6 (human)
  kinase still bound, per cent of control: 100%
CDKL3 (human)
  kinase still bound, per cent of control: 100%
MARK3 (human)
  kinase still bound, per cent of control: 100%
RPS6KA4 KD1 (human)
  kinase still bound, per cent of control: 100%
WEE1 (human)
  kinase still bound, per cent of control: 100%
NIM1 (human)
  kinase still bound, per cent of control: 100%
TEK (human)
  kinase still bound, per cent of control: 100%
ACVR2B (human)
  kinase still bound, per cent of control: 100%
[2]
  kinase still bound, per cent of control: 100%
ITK (human)
  kinase still bound, per cent of control: 100%
[3]
  kinase still bound, per cent of control: 100%
PDGFRB (human)
  kinase still bound, per cent of control: 100%
MAPK6 (human)
  kinase still bound, per cent of control: 100%
CAMK2A (human)
  kinase still bound, per cent of control: 100%
SYK (human)
  kinase still bound, per cent of control: 100%
NLK (human)
  kinase still bound, per cent of control: 100%
FGFR2 (human)
  kinase still bound, per cent of control: 100%
ERBB3 (human)
  kinase still bound, per cent of control: 100%
SBK1 (human)
  kinase still bound, per cent of control: 100%
ACVR1 (human)
  kinase still bound, per cent of control: 100%
CHUK (human)
  kinase still bound, per cent of control: 100%
MAPK12 (human)
  kinase still bound, per cent of control: 100%
PHKG2 (human)
  kinase still bound, per cent of control: 100%
MAP3K15 (human)
  kinase still bound, per cent of control: 100%
PRKG1 (human)
  kinase still bound, per cent of control: 100%
MAP2K2 (human)
  kinase still bound, per cent of control: 100%
MAP3K3 (human)
  kinase still bound, per cent of control: 100%
PDPK1 (human)
  kinase still bound, per cent of control: 100%
ROCK2 (human)
  kinase still bound, per cent of control: 100%
STK35 (human)
  kinase still bound, per cent of control: 100%

## CC(=O)c1c(C)c2cnc(Nc3ccc(N4CCNCC4)cn3)nc2n(C2CCCC2)c1=O
CDKL5 (human)
  kinase still bound, per cent of control: 1%
MAPK1 (human)
  kinase still bound, per cent of control: 73%
MERTK (human)
  kinase still bound, per cent of control: 39%
CSNK1D (human)
  kinase still bound, per cent of control: 22%
MYLK (human)
  kinase still bound, per cent of control: 20%
NEK6 (human)
  kinase still bound, per cent of control: 69%
CDKL3 (human)
  kinase still bound, per cent of control: 78%
MARK3 (human)
  kinase still bound, per cent of control: 8%
RPS6KA4 KD1 (human)
  kinase still bound, per cent of control: 75%
WEE1 (human)
  kinase still bound, per cent of control: 36%
CASK (human)
  kinase still bound, per cent of control: 60%
NIM1 (human)
  kinase still bound, per cent of control: 40%
ACVR2B (human)
  kinase still bound, per cent of control: 100%
[2]
  kinase still bound, per cent of control: 8.5%
ITK (human)
  kinase still bound, per cent of control: 71%
[3]
  kinase still bound, per cent of control: 68%
PDGFRB (human)
  kinase still bound, per cent of control: 29%
MAPK6 (human)
  kinase still bound, per cent of control: 57%
CAMK2A (human)
  kinase still bound, per cent of control: 3.2%
FGFR2 (human)
  kinase still bound, per cent of control: 95%
CPK1 (P.falciparum)
  kinase still bound, per cent of control: 46%
SBK1 (human)
  kinase still bound, per cent of control: 36%
ACVR1 (human)
  kinase still bound, per cent of control: 80%
CHUK (human)
  kinase still bound, per cent of control: 83%
MAPK12 (human)
  kinase still bound, per cent of control: 59%
[4]
  kinase still bound, per cent of control: 56%
PHKG2 (human)
  kinase still bound, per cent of control: 5%
MAP3K15 (human)
  kinase still bound, per cent of control: 11%
MAP2K2 (human)
  kinase still bound, per cent of control: 9.1%
MAP3K3 (human)
  kinase still bound, per cent of control: 4.2%
ROCK2 (human)
  kinase still bound, per cent of control: 36%
STK35 (human)
  kinase still bound, per cent of control: 66%
